The record followed here is ChEMBL document CHEMBL1152923, “ent-Kaurane diterpenoids from Isodon pharicus” (J Nat Prod, 2009).

Common to all, as to type: functional, cell-based
One assay has as its system A549. In words: Cytotoxicity against human A549 cells after 48 hrs by SRB method. Conditions: A549, 48 h. For orientation: The SRB assay estimates cell density from bound dye.
The test system of another assay is SH-SY5Y. The assay is described as follows: Cytotoxicity against human SH-SY5Y cells after 48 hrs by SRB method.
A further assay relates to NB-4. The assay is described as follows: Cytotoxicity against human NB4 cells after 48 hrs by SRB method. Conditions: NB-4, 48 h.
For a further assay, the system named is PC-3. In words: Cytotoxicity against human PC3 cells after 48 hrs by SRB method. To be noted: PC-3, 48 h.
A further assay concerns MCF7. In words: Cytotoxicity against human MCF7 cells after 48 hrs by SRB method. To be noted: MCF7, 48 h.

The IC50 is the concentration that gives 50% inhibition. A high value points to weaker potency. Consider `C=C1C(=O)[C@]23[C@H](O)[C@H]1C(=O)C[C@H]2[C@]1(C)CC[C@H](OC(C)=O)C(C)(C)[C@H]1C[C@H]3OC(C)=O`, for which the concentration for half-maximal inhibition (IC50) with A549, in the assay with SH-SY5Y, in the assay on NB-4, in the assay on PC-3 and with MCF7 was > 10 µM throughout.

For `C=C1C(=O)[C@@]23[C@H](O)C[C@@H]4C(C)(C)[C@H](O)CC[C@@]4(C)[C@@H]2C[C@H](OC(C)=O)[C@@H]1[C@H]3O`, the 50% inhibitory concentration (IC50) was > 10 µM in the assay with A549; 8.12 µM in the assay on SH-SY5Y; 8.32 µM in the assay with NB-4; > 10 µM in the assay on PC-3; > 10 µM with MCF7.

As for `C=C1[C@H]2[C@@H](OC(C)=O)[C@@]3(CC[C@@H]4C(C)(C)[C@@H](O)CC[C@@]4(C)[C@@H]3C[C@@H]2O)[C@@H]1O`, the IC50 in the assay on A549, in the assay with SH-SY5Y, with NB-4, with PC-3 and in the assay on MCF7 was > 10 µM in each case.

Turning to `COC[C@@H]1C(=O)[C@@]23[C@H](O)C[C@@H]4C(C)(C)[C@@H](OC(C)=O)CC[C@@]4(C)[C@@H]2CC(=O)[C@@H]1[C@H]3O`, the IC50 with A549 was > 10 µM; in the assay on SH-SY5Y it was > 10 µM; in the assay with NB-4, 8.74 µM; in the assay on PC-3, 7.42 µM; in the assay on MCF7, > 10 µM.

Turning to `C=C1C(=O)[C@@]23[C@H](O)C[C@@H]4C(C)(C)[C@@H](OC(C)=O)C[C@H](O)[C@@]4(C)[C@@H]2C[C@H](O)[C@@H]1[C@H]3O`, the concentration for half-maximal inhibition (IC50) in the assay on A549, in the assay on SH-SY5Y, in the assay with NB-4, with PC-3 and in the assay with MCF7 was > 10 µM each time.

As for `C=C1C(=O)[C@@]23[C@@H]4OC(C)(C)O[C@@H]2C[C@@H]2C(C)(C)[C@H](O)CC[C@@]2(C)[C@@H]3C[C@H](O)[C@@H]14`, the half-inhibitory concentration (IC50) in the assay with A549 was 6.02 µM; with SH-SY5Y it was > 10 µM; in the assay on NB-4, 3.56 µM; in the assay on PC-3 it was > 10 µM; with MCF7, > 10 µM.

As to `C=C1C(=O)[C@@]23[C@H](O)C[C@@H]4C(C)(C)[C@@H](O)CC[C@@]4(C)[C@@H]2C[C@H](O)[C@@H]1[C@H]3O` [3-EPIPSEURATA B], the IC50 in the assay on A549, in the assay on SH-SY5Y, with NB-4, with PC-3 and in the assay on MCF7 was > 10 µM each time.

Regarding `C=C1[C@@H]2C(=O)C[C@H]3[C@@]4(C)[C@H](C[C@@H](O)[C@@]3([C@@H]1O)[C@@H]2O)C(C)(C)[C@@H](OC(C)=O)C[C@@H]4O` [DIHYDROPSEURATA F], the IC50 with A549, in the assay on SH-SY5Y, in the assay with NB-4, in the assay on PC-3 and with MCF7 was > 10 µM throughout.

`C=C1C(=O)[C@@]23[C@H](O)C[C@@H]4C(C)(C)C(=O)CC[C@@]4(C)[C@@H]2CC[C@@H]1[C@H]3O` [GLAUCOCALYXIN A]: the IC50 with A549 was 5.39 µM; in the assay with SH-SY5Y, > 10 µM; in the assay with NB-4 it was 2.9 µM; in the assay on PC-3, > 10 µM; in the assay on MCF7 it was 8.73 µM.

For `C=C1C(=O)[C@@]23[C@H](O)C[C@@H]4C(C)(C)C(=O)CC[C@@]4(C)[C@@H]2CC[C@@H]1[C@H]3OC(C)=O` [GLAUCOCALYXIN B], the half-maximal inhibitory concentration (IC50) was 6.22 µM in the assay on A549; > 10 µM with SH-SY5Y; 7.86 µM in the assay with NB-4; > 10 µM in the assay on PC-3; > 10 µM in the assay with MCF7.

`C=C1C(=O)[C@@]23[C@H](O)C[C@@H]4C(C)(C)[C@@H](OC(C)=O)C[C@H](O)[C@@]4(C)[C@@H]2CC[C@@H]1[C@H]3O` [ISODOMEDIN]: the IC50 is > 10 µM in the assay on A549; > 10 µM in the assay with SH-SY5Y; 7.29 µM in the assay on NB-4; > 10 µM in the assay with PC-3; > 10 µM in the assay on MCF7.

As to `C=C1C(=O)[C@@]23[C@H](O)C[C@@H]4C(C)(C)[C@@H](OC(C)=O)CC[C@@]4(C)[C@@H]2CC[C@@H]1[C@H]3O` [LEUKAMENIN E], the IC50 in the assay on A549 is > 10 µM; in the assay with SH-SY5Y, > 10 µM; with NB-4, 4 µM; in the assay with PC-3, > 10 µM; in the assay on MCF7, > 10 µM.

For the molecule `C=C1C(=O)[C@@]23[C@H](O)C[C@@H]4C(C)(C)[C@@H](O)C[C@H](O)[C@@]4(C)[C@@H]2CC[C@@H]1[C@H]3O` [MINHERYIN G], the IC50 in the assay on A549, in the assay with SH-SY5Y, in the assay with NB-4, with PC-3 and with MCF7 was > 10 µM throughout.

`C=C1C(=O)[C@@]23C(CC[C@@H]1[C@H]2O)[C@]1(C)CC[C@@H](O)C(C)(C)[C@H]1C[C@H]3O` (stereo not given in full) [PSEURATA A]: the half-maximal inhibitory concentration (IC50) is 2.92 µM in the assay on A549; > 10 µM in the assay on SH-SY5Y; 7.69 µM with NB-4; > 10 µM in the assay on PC-3; 9.05 µM in the assay on MCF7.

For the molecule `C=C1C(=O)[C@@]23[C@H](O)C[C@@H]4C(C)(C)[C@H](O)CC[C@@]4(C)[C@@H]2C[C@H](O)[C@@H]1[C@H]3O` [PSEURATA B], the half-maximal inhibitory concentration (IC50) in the assay on A549, in the assay on SH-SY5Y, in the assay with NB-4, in the assay with PC-3 and in the assay on MCF7 was > 10 µM in each case.

On to `C=C1C(=O)[C@@]23[C@H](O)C[C@@H]4C(C)(C)[C@@H](OC(C)=O)CC[C@@]4(C)[C@@H]2CC(=O)[C@@H]1[C@H]3O` [PSEURATA C], for which the half-maximal inhibitory concentration (IC50) with A549 was 7.62 µM; in the assay with SH-SY5Y it was > 10 µM; in the assay on NB-4 it was 2.08 µM; in the assay with PC-3, > 10 µM; with MCF7, > 10 µM.

With `C=C1C(=O)[C@@]23[C@H](O)C[C@@H]4C(C)(C)[C@@H](OC(C)=O)C[C@H](O)[C@@]4(C)[C@@H]2CC(=O)[C@@H]1[C@H]3O` [PSEURATA F], the IC50 in the assay on A549, with SH-SY5Y, in the assay on NB-4, with PC-3 and in the assay with MCF7 was > 10 µM each time.

In the case of `C=C1C(=O)[C@@]23C(CC[C@@H]1[C@H]2O)[C@]1(C)CC[C@H](O)C(C)(C)[C@H]1C[C@H]3O` (stereo not given in full) [WANGZAOZIN A], the IC50 in the assay on A549 is 9.29 µM; in the assay on SH-SY5Y, > 10 µM; with NB-4 it was 9.02 µM; with PC-3, > 10 µM; in the assay with MCF7, 5.8 µM.
